Like-named read-outs stand apart in the source and are kept apart here.
Tests used:
[1] = tested on: MRSA MW2 persisters; assay: Persister killing assay; assay type: cell-based, S. aureus; conditions: MRSA persisters, in words
Experimental: Persister killing assay. […] Persistency of stationary-phase S. aureus VRS1 was evaluated by treating with 100×MIC daptomycin and 100×MIC linezolid, because the strain is resistant to vancomycin, gentamicin, ciprofloxacin, and rifampicin. We prepared persister cells of the 13 S. aureus strains by growing cultures overnight to stationary phase at 37° C. at 225 rpm. The overnight cultures were washed three times with PBS and diluted to ˜5×10^7 ? CFU/ml with the same buffer. 2 ml of the persister suspension containing appropriate concentrations of antibiotics was added to the wells of a 96-well assay block (Corning Costar 3960) and incubated at 37° C., with shaking at 225 rpm. At specific times, 400 μl samples were removed and washed once with PBS to remove the antibiotic. The samples were serially diluted 10^5 fold with PBS and spot-plated onto TSA plates. After incubating the plates overnight (˜18 h) at 37° C., the colonies were counted to enumerate the number of cells. These experiments were conducted in triplicate.

[2] = Cytotoxicity (WST-1) in a panel of human cell lines; assay type: cell-based; conditions: panel of human cell lines, serum-free media, 24 h; read-out: LC50
Experimental: (§1) Cytotoxicity. Cryopreserved rat and human primary hepatocytes were purchased from the Cell Resource Core at Massachusetts General Hospital (Boston, MA, USA). The hepatocytes were cultured in a collagen sandwiched configuration in 24-well plates, as described previously. Briefly, 4×10^5 live cells were seeded in 24-well plates coated with rat tail collagen type I. Plates were incubated in a humidified 5% CO2 incubator at 37° C. for 4 h to allow cells to attach to the collagen gel. […] The cell cultures were incubated in a humidified 5% CO2 incubator at 37° C.
(§2) For cytotoxicity tests, HepG2, RPTEC, and NHEK were cultured at 70-80% confluence in tissue culture treated 96-well plates in a volume of 100 μl/well corresponding culture media. To test cytotoxicity in the absence of serum, all cells were washed twice with PBS and then once with the serum-free corresponding culture media. […] WST-1 reduction was measured at 450 nm. The percent fluorescence relative to that of the no-treatment control was calculated. The assay was done in triplicate.

[3] = tested on: panel of human cell lines; assay: as above; assay type: cell-based; conditions: compared with CD437, in words
Experimental: as §1, §2

[4] = Cytotoxicity (WST-1) in HepG2 cells; assay type: cell-based, human; conditions: human; HepG2 cells, serum-free media, 24 h; read-out: LC50
Text: (§3) Human hepatoma, HepG2 (ATCC HB-8065) cells were maintained in DMEM containing 10% fetal bovine serum and antibiotics penicillin—streptomycin (100 units/ml). Normal human primary renal proximal tubular epithelial cells (RPTEC, Lonza catalog #CC-2553, Walkersville, MD, USA) and adult normal human epidermal keratinocytes (NHEK, Lonza catalog #192627) were maintained in renal cell growth media with growth supplements (REGM, Lonza catalog #CC-3190) and in keratinocyte growth media 2 with growth supplements (KGM-2, Lonza catalog #CC-3107), respectively in a humidified 5% CO2 incubator at 37° C.
(§4) For cytotoxicity tests, HepG2, RPTEC, and NHEK were cultured at 70-80% confluence in tissue culture treated 96-well plates in a volume of 100 μl/well corresponding culture media. To test cytotoxicity in the absence of serum, all cells were washed twice with PBS and then once with the serum-free corresponding culture media. The cells were then treated with a range of concentrations of retinoids in the serum-free culture media for 24 h. For the last 4 h of the 24 h period, 50 μl and 10 μl of WST-1 (Roche, Mannheim, Germany) were added in each well of the 24-well and the 96-well plates, respectively. WST-1 reduction was measured at 450 nm. The percent fluorescence relative to that of the no-treatment control was calculated. The assay was done in triplicate.

[5] = tested on: human hepatoma HepG2 cells; assay: Cytotoxicity (WST-1) in HepG2 cells; assay type: cell-based; conditions: compared with CD437, in words
Text: as §3, §4

[6] = Pharmacokinetic analysis; assay type: in vivo, mice; conditions: for half-life: 20 mg/kg
Experimental: Pharmacokinetic analysis. Pharmacokinetic experiments were conducted by SAI Life Sciences Ltd. (Pune, India) in accordance with guidelines provided by the Committee for the Purpose of Control and Supervision of Experiments on Animals (CPCSEA). The Institutional Animal Ethics Committee (IAEC) approved the experimental protocol. In brief, healthy female CD1 mice (6 weeks old) weighing between 20 to 25 g were procured from Hylasco (Hyderabad, India). Analog 2 was dissolved in a 1:1 solution of Kolliphor EL (Sigma-Aldrich, St Louis, MO, USA) and ethanol and then diluted 1:10 in saline to a final concentration of 2 mg/ml. Groups of mice (n=3) were treated with 20 mg/kg Analog 2 (i.p.). Blood samples were collected as terminal a bleed under light isoflurane anesthesia through a cardiac puncture such that samples were obtained at pre-dose, 0.08, 0.25, 0.5, 1, 2, 4, 8 & 24 h. Immediately after collection, plasma was harvested by centrifugation and stored at −70° C. until analysis. All samples were processed for analysis by protein precipitation using acetonitrile and analyzed with fit-for-purpose LC/MS/MS method (LLOQ=4.90 ng/mL for plasma). Pharmacokinetic parameters were calculated using the non-compartmental analysis tool of Phoenix WinNonlin (Version 6.3). No statistical methods were used to predetermine samples size. The experiments were not randomized, and investigators were not blinded to allocation during experiments and outcome assessment. Outliers were determined based on Grubb's test using GraphPad Prism 7 (GraphPad Software, La Jolla, CA, USA).

[7] = tested on: Cutibacterium (Propionibacterium) acnes; assay: Growth inhibition / MIC against P. acnes; assay type: cell-based; conditions: in words (FIG. 11)
Experimental: Minimal inhibitory concentration (MIC) assay. The MICs of antibiotics were determined by the standard micro-dilution method recommended by the Clinical and Laboratory Standards Institute. The assay was conducted in triplicate.
More specifically, uptake of SYTOX Green by Cutibacterium (Propionibacterium) acnes cells treated with retinoids CD437 and Analog 2 increased, indicating higher permeability (FIG. 12; individual data points (n=3 biologically independent samples) and means are shown).

OCc1ccc2cc(-c3ccc(O)c(C45CC6CC(CC(C6)C4)C5)c3)ccc2c1 [Analog 2, 2-(adamantan-1-yl)-4-(6-(hydroxymethyl)naphthalen-2-yl)phenol]
anti-persister activity [1]: retained bacterial activity against MRSA persisters | CC50 at 24 h [2]: ≥ 31 µg/mL | cytotoxicity [3]: significantly reduced | CC50 at 24 h [4]: > 32 µg/mL | anticancer activity [5]: significantly reduced | AUC(0-inf) ([6]; female, CD1, mouse, ip, mice, single injection 20 mg/kg i.p., plasma, read-out: AUCinf (area under the curve to infinite)): 16500 ng·h/mL | AUC(0-t) ([6]; female, CD1, mouse, ip, mice, single injection 20 mg/kg i.p., plasma, read-out: AUClast (area under the curve to last time point)): 16400 ng·h/mL | Cmax ([6]; female, CD1, mouse, ip, mice, single injection 20 mg/kg i.p., plasma, read-out: Cmax (maximum concentration observed)): 16100 ng/mL | Tmax ([6]; female, CD1, mouse, ip, mice, single injection 20 mg/kg i.p., plasma, read-out: Tmax (the time taken to reach the maximum concentration)): 0.5 h | half-life ([6]; female, CD1, mouse, plasma, ip, intraperitoneal single dose of 20 mg/kg, as stated in Example 3, read-out: elimination half-life (converted)): 4.5 h | half-life ([6]; female, CD1, mouse, plasma, ip, mice, single injection 20 mg/kg i.p., plasma, read-out: T1/2 (Half-life) (converted)): 4.49 h | maximum plasma concentration ([6]; intraperitoneal single dose of 20 mg/kg, as stated in Example 3): ~10 µg/mL | CL (clearance) ([6]; mice, single injection 20 mg/kg i.p., plasma): 20.16 mL/min/kg | growth inhibition [7]: inhibit the growth

Source: US12195424B2, “Antibiotic compounds” (The General Hospital Corporation, priority 2017, dated 2025)
